Columns and labels:
[1] = target: Ephrin type-A receptor 6 (Homo sapiens) (UniProt Q9UF33); conditions: Compound concentration 1000.0 nM
[2] = target: Tyrosine-protein kinase CSK (Homo sapiens) (UniProt P41240); conditions: Compound concentration 1000.0 nM
[3] = target: Serine/threonine-protein kinase MARK1 (Homo sapiens) (UniProt Q9P0L2); conditions: Compound concentration 1000.0 nM
[4] = target: Serine/threonine-protein kinase PLK4 (Homo sapiens) (UniProt O00444); conditions: Compound concentration 1000.0 nM
[5] = system: Fibroblast growth factor receptor 3 (Homo sapiens), P22607 [G697C]; conditions: Compound concentration 1000.0 nM
[6] = system: Mast/stem cell growth factor receptor Kit (Homo sapiens), P10721 [V559D,T670I]; conditions: Compound concentration 1000.0 nM
[7] = system: Receptor-type tyrosine-protein kinase FLT3 (Homo sapiens), P36888 [N841I]; conditions: Compound concentration 1000.0 nM
[8] = target: Mitogen-activated protein kinase 8 (Homo sapiens) (UniProt P45983); conditions: Compound concentration 1000.0 nM
[9] = target: Insulin receptor-related protein (Homo sapiens) (UniProt P14616); conditions: Compound concentration 1000.0 nM
[10] = target: Non-receptor tyrosine-protein kinase TNK1 (Homo sapiens) (UniProt Q13470); conditions: Compound concentration 1000.0 nM
[11] = target: Mitogen-activated protein kinase kinase kinase 14 (Homo sapiens) (UniProt Q99558); conditions: Compound concentration 1000.0 nM
[12] = target: Tyrosine-protein kinase FRK (Homo sapiens) (UniProt P42685); conditions: Compound concentration 1000.0 nM
[13] = target: Muscarinic acetylcholine receptor M5 (Homo sapiens) (UniProt P08912); conditions: Compound concentration 10.0 uM
[14] = target: Proto-oncogene tyrosine-protein kinase receptor Ret (Homo sapiens) (UniProt P07949); conditions: Compound concentration 1000.0 nM
[15] = target: MAP kinase-activated protein kinase 2 (Homo sapiens) (UniProt P49137); conditions: Compound concentration 1000.0 nM
[16] = target: Calcium/calmodulin-dependent protein kinase kinase 2 (Homo sapiens) (UniProt Q96RR4); conditions: Compound concentration 1000.0 nM
[17] = target: Mitogen-activated protein kinase kinase kinase kinase 2 (Homo sapiens) (UniProt Q12851); conditions: Compound concentration 1000.0 nM
[18] = target: Protein kinase C epsilon type (Homo sapiens) (UniProt Q02156); conditions: Compound concentration 1000.0 nM
[19] = system: Tyrosine-protein kinase ABL1 (Homo sapiens), P00519 [Q252H]; conditions: Compound concentration 1000.0 nM
[20] = target: Mitogen-activated protein kinase kinase kinase 9 (Homo sapiens) (UniProt P80192); conditions: Compound concentration 1000.0 nM
[21] = target: Cyclin-dependent kinase-like 2 (Homo sapiens) (UniProt Q92772); conditions: Compound concentration 1000.0 nM
[22] = target: Cyclin-dependent kinase 9 (Homo sapiens) (UniProt P50750); conditions: Compound concentration 1000.0 nM
[23] = target: D(1B) dopamine receptor (Homo sapiens) (UniProt P21918); conditions: Compound concentration 10.0 uM
[24] = target: Mitogen-activated protein kinase kinase kinase 4 (Homo sapiens) (UniProt Q9Y6R4); conditions: Compound concentration 1000.0 nM
[25] = system: Receptor-type tyrosine-protein kinase FLT3 (Homo sapiens), P36888 [UNDEFINED MUTATION]; conditions: Compound concentration 1000.0 nM
[26] = target: Serine/threonine-protein kinase Nek3 (Homo sapiens) (UniProt P51956); conditions: Compound concentration 1000.0 nM
[27] = target: Cyclin-dependent kinase 14 (Homo sapiens) (UniProt O94921); conditions: Compound concentration 1000.0 nM
[28] = target: Mu-type opioid receptor (Homo sapiens) (UniProt P35372); conditions: Compound concentration 10.0 uM
[29] = target: Activin receptor type-1-like (Homo sapiens) (UniProt P37023); conditions: Compound concentration 1000.0 nM
[30] = target: 3-phosphoinositide-dependent protein kinase 1 (Homo sapiens) (UniProt O15530); conditions: Compound concentration 1000.0 nM
[31] = system: Tyrosine-protein kinase ABL1 (Homo sapiens), P00519 [H396P]; conditions: Compound concentration 1000.0 nM
[32] = target: Serine/threonine-protein kinase VRK2 (Homo sapiens) (UniProt Q86Y07); conditions: Compound concentration 1000.0 nM
[33] = target: Serine/threonine-protein kinase WNK2 (Homo sapiens) (UniProt Q9Y3S1); conditions: Compound concentration 1000.0 nM
[34] = target: Myosin light chain kinase 2, skeletal/cardiac muscle (Homo sapiens) (UniProt Q9H1R3); conditions: Compound concentration 1000.0 nM
[35] = target: Inhibitor of nuclear factor kappa-B kinase subunit alpha (Homo sapiens) (UniProt O15111); conditions: Compound concentration 1000.0 nM
[36] = target: D(4) dopamine receptor (Homo sapiens) (UniProt P21917); conditions: Compound concentration 10.0 uM
[37] = target: Serine/threonine-protein kinase 35 (Homo sapiens) (UniProt Q8TDR2); conditions: Compound concentration 1000.0 nM
[38] = target: Dual specificity protein kinase CLK4 (Homo sapiens) (UniProt Q9HAZ1); conditions: Compound concentration 1000.0 nM
[39] = target: Serine/threonine-protein kinase MRCK gamma (Homo sapiens) (UniProt Q6DT37); conditions: Compound concentration 1000.0 nM
[40] = target: Cyclin-dependent kinase-like 1 (Homo sapiens) (UniProt Q00532); conditions: Compound concentration 1000.0 nM
[41] = system: Tyrosine-protein kinase ABL1 (Homo sapiens), P00519 [T315I]; conditions: Compound concentration 1000.0 nM
[42] = target: Serine/threonine-protein kinase RIO2 (Homo sapiens) (UniProt Q9BVS4); conditions: Compound concentration 1000.0 nM
[43] = target: Serine/threonine-protein kinase NLK (Homo sapiens) (UniProt Q9UBE8); conditions: Compound concentration 1000.0 nM
[44] = target: Macrophage colony-stimulating factor 1 receptor (Homo sapiens) (UniProt P07333); conditions: Compound concentration 1000.0 nM
[45] = target: Vascular endothelial growth factor receptor 2 (Homo sapiens) (UniProt P35968); conditions: Compound concentration 1000.0 nM

Chain of Serine/threonine-protein kinase WNK2 (Homo sapiens) (Q9Y3S1 whole entry): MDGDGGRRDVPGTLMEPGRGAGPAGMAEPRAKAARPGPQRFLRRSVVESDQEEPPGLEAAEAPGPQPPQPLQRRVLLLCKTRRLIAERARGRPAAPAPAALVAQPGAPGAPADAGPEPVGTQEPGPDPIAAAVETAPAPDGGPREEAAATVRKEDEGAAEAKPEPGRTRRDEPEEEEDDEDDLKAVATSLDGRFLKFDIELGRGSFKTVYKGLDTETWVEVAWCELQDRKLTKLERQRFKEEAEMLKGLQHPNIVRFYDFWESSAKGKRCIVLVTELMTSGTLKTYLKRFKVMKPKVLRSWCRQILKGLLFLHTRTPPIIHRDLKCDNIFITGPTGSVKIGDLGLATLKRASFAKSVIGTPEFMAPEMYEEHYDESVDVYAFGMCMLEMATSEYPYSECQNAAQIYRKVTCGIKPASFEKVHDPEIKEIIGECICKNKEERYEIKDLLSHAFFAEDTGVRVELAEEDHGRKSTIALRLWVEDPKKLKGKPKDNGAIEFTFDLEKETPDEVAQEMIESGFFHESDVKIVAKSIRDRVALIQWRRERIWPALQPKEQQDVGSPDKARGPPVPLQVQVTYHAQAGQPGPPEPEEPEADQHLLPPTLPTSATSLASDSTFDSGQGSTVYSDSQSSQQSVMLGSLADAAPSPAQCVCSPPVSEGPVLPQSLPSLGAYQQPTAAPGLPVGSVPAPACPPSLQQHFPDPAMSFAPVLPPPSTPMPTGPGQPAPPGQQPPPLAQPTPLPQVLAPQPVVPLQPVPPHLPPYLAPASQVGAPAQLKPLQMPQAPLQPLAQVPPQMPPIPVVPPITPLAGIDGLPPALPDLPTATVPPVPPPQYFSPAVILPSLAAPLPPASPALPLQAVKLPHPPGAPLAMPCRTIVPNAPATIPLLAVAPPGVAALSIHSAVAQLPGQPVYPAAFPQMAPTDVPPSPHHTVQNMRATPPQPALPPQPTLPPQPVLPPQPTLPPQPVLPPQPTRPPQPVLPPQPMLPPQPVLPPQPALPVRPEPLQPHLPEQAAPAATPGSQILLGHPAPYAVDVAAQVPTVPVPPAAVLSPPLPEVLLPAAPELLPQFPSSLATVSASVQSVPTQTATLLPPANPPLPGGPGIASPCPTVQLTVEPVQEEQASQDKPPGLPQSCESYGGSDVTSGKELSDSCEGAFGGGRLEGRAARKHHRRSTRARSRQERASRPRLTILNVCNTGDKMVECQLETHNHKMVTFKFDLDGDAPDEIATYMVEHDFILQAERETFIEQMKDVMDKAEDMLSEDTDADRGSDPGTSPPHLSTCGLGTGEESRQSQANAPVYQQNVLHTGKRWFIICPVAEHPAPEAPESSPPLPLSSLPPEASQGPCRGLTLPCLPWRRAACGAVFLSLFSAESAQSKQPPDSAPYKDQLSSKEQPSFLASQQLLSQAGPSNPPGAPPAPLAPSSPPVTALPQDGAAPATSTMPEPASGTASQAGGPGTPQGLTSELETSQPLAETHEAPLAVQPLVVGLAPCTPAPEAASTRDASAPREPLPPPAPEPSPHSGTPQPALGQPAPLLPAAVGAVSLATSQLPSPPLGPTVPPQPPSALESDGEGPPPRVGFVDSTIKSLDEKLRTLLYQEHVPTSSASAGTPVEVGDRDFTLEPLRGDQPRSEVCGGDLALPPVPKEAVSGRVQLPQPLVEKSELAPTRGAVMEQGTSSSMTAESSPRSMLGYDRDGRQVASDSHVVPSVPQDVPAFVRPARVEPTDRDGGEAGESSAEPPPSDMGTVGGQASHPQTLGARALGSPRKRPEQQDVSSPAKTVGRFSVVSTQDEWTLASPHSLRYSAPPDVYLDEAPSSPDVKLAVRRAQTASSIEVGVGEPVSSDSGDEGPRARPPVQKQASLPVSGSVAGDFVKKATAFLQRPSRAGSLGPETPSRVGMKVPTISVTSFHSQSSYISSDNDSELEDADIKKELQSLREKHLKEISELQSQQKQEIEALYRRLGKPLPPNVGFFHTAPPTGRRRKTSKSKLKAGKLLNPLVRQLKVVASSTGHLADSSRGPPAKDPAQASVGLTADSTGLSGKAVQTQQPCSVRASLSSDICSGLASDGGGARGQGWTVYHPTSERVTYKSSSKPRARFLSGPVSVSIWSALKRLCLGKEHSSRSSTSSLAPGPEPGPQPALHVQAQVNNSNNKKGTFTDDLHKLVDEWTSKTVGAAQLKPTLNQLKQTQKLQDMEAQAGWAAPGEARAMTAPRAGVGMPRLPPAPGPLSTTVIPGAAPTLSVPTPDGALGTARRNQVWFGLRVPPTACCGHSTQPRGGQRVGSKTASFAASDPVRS
Chain of Serine/threonine-protein kinase VRK2 (Homo sapiens) (Q86Y07 whole entry): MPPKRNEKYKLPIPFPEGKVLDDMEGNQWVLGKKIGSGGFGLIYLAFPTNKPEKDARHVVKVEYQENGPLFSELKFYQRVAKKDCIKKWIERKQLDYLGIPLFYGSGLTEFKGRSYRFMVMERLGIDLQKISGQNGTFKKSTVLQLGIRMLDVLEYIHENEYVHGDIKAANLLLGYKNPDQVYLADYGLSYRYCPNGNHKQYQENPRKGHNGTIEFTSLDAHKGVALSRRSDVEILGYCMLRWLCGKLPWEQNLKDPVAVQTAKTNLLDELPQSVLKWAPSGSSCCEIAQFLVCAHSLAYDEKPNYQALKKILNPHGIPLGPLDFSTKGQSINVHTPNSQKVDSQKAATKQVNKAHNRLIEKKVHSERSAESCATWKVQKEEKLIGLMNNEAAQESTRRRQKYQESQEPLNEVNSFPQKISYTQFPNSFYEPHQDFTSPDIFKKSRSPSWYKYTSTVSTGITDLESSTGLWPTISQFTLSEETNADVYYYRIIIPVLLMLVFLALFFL
Chain of Cyclin-dependent kinase-like 2 (Homo sapiens) (Q92772 whole entry): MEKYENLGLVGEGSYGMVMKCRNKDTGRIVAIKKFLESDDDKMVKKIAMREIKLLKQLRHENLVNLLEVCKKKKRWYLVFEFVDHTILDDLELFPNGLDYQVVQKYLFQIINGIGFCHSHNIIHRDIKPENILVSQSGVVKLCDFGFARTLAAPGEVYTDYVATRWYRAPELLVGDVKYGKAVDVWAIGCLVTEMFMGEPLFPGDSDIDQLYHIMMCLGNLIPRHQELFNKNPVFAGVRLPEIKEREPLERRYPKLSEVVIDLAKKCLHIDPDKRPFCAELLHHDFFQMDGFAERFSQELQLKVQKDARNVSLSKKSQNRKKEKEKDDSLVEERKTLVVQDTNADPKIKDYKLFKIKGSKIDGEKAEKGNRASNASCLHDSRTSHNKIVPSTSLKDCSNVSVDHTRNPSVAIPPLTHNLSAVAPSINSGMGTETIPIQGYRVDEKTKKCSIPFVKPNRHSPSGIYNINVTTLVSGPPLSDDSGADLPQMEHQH
Chain of Cyclin-dependent kinase 14 (Homo sapiens) (O94921 whole entry): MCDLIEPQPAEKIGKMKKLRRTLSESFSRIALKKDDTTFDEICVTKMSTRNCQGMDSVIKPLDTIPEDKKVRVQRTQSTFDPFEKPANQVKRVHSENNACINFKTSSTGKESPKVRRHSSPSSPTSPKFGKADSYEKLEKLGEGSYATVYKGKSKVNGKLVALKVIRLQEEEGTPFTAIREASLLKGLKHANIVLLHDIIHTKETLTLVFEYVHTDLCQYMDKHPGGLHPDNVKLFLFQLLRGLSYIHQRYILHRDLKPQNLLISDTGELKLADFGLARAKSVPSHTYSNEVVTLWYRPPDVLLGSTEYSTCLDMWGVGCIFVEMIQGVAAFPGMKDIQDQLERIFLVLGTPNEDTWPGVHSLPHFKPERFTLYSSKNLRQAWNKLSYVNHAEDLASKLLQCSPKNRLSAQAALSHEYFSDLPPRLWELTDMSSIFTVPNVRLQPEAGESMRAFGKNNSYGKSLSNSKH
Chain of Macrophage colony-stimulating factor 1 receptor (Homo sapiens) (P07333 whole entry): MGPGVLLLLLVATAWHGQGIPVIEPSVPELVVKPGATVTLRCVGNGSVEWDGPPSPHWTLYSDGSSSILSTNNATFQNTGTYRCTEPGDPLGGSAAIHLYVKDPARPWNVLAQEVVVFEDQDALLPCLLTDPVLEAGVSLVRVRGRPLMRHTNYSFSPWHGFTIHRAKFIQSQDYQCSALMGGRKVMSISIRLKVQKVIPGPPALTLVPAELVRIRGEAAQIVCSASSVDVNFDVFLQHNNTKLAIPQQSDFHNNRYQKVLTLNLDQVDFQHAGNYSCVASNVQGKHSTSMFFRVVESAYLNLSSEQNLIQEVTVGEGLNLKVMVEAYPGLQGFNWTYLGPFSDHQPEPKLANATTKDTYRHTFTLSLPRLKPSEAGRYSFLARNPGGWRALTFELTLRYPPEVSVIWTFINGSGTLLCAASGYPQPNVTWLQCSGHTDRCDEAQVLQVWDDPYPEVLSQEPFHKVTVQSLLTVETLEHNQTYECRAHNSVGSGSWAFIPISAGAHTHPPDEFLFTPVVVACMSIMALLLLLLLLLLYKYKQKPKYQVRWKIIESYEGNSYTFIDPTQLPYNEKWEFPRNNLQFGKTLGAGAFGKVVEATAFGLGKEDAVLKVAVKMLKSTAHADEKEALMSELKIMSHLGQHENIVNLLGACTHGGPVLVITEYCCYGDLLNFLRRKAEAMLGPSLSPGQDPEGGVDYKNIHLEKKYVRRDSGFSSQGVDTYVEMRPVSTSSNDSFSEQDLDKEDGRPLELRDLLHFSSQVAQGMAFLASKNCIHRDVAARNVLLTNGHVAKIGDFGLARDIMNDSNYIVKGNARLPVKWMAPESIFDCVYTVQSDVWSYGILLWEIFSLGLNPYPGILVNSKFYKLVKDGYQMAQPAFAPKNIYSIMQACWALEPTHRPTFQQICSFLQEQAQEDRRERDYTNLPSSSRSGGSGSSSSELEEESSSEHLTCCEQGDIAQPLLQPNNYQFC
Chain of Cyclin-dependent kinase-like 1 (Homo sapiens) (Q00532 whole entry): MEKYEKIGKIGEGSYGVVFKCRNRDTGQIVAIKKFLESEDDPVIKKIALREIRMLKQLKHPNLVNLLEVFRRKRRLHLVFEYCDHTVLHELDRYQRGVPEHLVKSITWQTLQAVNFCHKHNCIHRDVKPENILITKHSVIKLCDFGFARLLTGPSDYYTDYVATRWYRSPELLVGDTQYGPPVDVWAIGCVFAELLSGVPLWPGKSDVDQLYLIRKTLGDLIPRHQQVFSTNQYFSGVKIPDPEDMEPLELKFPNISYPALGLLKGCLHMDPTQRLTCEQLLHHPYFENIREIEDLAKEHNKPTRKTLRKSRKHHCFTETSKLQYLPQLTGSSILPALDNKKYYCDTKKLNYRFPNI

O=c1nc(-c2ccccn2)sc2ccccc12 [BTZO-1]
inactive: residual activity [1] 100% | residual activity [2] 100% | residual activity [3] 100% | residual activity [4] 80% | residual activity [5] 100% | residual activity [6] 83% | residual activity [7] 74% | residual activity [8] 100% | residual activity [9] 86% | residual activity [10] 59% | residual activity [11] 100% | residual activity [12] 100% | inhibition [13] -7.5% | residual activity [14] 89% | residual activity [15] 100% | residual activity [16] 90% | residual activity [17] 100% | residual activity [18] 100% | residual activity [19] 82% | residual activity [20] 85% | residual activity [21] 76% | residual activity [22] 95% | inhibition [23] 21.5% | residual activity [24] 92% | residual activity [25] 100% | residual activity [26] 72% | residual activity [27] 100% | inhibition [28] 3.52% | residual activity [29] 99% | residual activity [30] 100% | residual activity [31] 100% | residual activity [32] 74% | residual activity [33] 100% | residual activity [34] 100% | residual activity [35] 100% | inhibition [36] 10.1% | residual activity [37] 79% | residual activity [38] 90% | residual activity [39] 80% | residual activity [40] 87% | residual activity [41] 100% | residual activity [42] 94% | residual activity [43] 100% | residual activity [44] 95% | residual activity [45] 100%

O=C1NC(c2ccccn2)Sc2ccccc21 (stereo not given) [BTZO-4]
inactive: residual activity [1] 79% | residual activity [2] 100% | residual activity [3] 99% | residual activity [4] 76% | residual activity [5] 100% | residual activity [6] 87% | residual activity [7] 60% | residual activity [8] 100% | residual activity [9] 75% | residual activity [10] 55% | residual activity [11] 92% | residual activity [12] 100% | inhibition [13] 0.557% | residual activity [14] 88% | residual activity [15] 100% | residual activity [16] 95% | residual activity [17] 83% | residual activity [18] 96% | residual activity [19] 73% | residual activity [20] 88% | residual activity [21] 76% | residual activity [22] 100% | inhibition [23] 11.2% | residual activity [24] 100% | residual activity [25] 100% | residual activity [26] 80% | residual activity [27] 100% | inhibition [28] 6.47% | residual activity [29] 70% | residual activity [30] 97% | residual activity [31] 80% | residual activity [32] 77% | residual activity [33] 100% | residual activity [34] 100% | residual activity [35] 100% | inhibition [36] 7.31% | residual activity [37] 99% | residual activity [38] 97% | residual activity [39] 80% | residual activity [40] 75% | residual activity [41] 100% | residual activity [42] 83% | residual activity [43] 100% | residual activity [44] 91% | residual activity [45] 82%

From ChEMBL document CHEMBL4507329, “Data for DCP probe BTZO-1” (2021)
